Where two headings read alike, the source gives them in different places. Numbered stars: 1 amine (or outer) side, 2 acyl side, 3 side chain; on linkers, the order of the positions; unused ones are H or OH. Square brackets hold non-standard residues; d marks the D form. Side chains are listed from the residue outwards. Peptide text beside a SMILES is read from it. * marks the point of attachment. C18 diacid = O=C(O)CCCCCCCCCCCCCCCCC(=O)*; γGlu = O=C(O)[C@H](CCC(=O)[*:2])N[*:1]; αMeF = C[C@](N)(Cc1ccccc1)C(=O)O; αMeK = C[C@](N)(CCCCN)C(=O)O; αMeS = C[C@](N)(CO)C(=O)O; AEEA = NCCOCCOCC(=O)O; Aib = CC(C)(N)C(=O)O
Assays:
Type in all cases: cell-based
[1] = molecular target: T1, human glucagon receptor (GCGR) (Homo sapiens, UniProt P47871); test: cAMP assay, human GCGR cells; conditions: cAMP assay
T1 construct: expressed in transfected cells
T1 sequence (P47871 26-477): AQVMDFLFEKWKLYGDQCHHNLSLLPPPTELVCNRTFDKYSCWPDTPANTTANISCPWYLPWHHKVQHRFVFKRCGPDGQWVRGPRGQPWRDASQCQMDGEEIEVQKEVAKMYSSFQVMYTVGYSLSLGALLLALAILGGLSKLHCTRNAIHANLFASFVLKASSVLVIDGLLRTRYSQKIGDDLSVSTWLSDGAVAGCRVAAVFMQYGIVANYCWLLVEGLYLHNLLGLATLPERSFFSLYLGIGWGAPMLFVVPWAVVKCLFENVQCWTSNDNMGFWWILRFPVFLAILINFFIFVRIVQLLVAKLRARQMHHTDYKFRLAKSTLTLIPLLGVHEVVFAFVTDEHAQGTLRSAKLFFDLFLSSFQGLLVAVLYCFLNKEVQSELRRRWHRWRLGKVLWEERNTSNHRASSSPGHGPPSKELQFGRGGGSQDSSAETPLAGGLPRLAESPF
In short: (§1)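 Peptide-stimulated cAMP measured by two-step HTRF after a 30 min room-temperature incubation with receptor-expressing cells (hGLP-1R, hGIPR at 1×10^5 cells/ml; hGCGR at 2×10^5 cells/ml). Duplicate dilutions; EC50 from 4-parameter logistic fit of % Delta F.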

[2] = molecular target: T2, GLP-1R (INS1e assay) (Rattus norvegicus, UniProt P32301); test: INS1e assay, cAMP activity at GLP-1R; conditions: mono-lipidated peptides
T2 construct: endogenous in cells; host or cells: INS-1E cells
T2 sequence (P32301 22-463): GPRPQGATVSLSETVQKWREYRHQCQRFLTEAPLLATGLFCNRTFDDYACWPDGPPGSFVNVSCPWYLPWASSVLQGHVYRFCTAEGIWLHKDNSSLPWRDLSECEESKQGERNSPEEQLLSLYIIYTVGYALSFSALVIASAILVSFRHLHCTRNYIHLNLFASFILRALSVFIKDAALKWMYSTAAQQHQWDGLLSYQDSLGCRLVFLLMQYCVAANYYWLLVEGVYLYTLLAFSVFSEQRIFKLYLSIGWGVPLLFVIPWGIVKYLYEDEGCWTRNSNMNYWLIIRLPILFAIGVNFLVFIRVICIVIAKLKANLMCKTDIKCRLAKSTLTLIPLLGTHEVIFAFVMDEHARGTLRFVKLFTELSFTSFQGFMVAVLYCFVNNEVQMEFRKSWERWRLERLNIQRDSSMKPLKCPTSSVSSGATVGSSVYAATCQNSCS
In short: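 It pairs cAMP-d2 acceptor with anti-cAMP cryptate donor, both prepared 1/20 in conjugate/lysis buffer, applied as a two-step protocol.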

[3] = molecular target: T3, human GLP-1 receptor (GLP-1R) (Homo sapiens, UniProt P43220); test: cAMP assay, human GLP-1R cells
T3 construct: expressed in transfected cells
T3 sequence (P43220 24-463): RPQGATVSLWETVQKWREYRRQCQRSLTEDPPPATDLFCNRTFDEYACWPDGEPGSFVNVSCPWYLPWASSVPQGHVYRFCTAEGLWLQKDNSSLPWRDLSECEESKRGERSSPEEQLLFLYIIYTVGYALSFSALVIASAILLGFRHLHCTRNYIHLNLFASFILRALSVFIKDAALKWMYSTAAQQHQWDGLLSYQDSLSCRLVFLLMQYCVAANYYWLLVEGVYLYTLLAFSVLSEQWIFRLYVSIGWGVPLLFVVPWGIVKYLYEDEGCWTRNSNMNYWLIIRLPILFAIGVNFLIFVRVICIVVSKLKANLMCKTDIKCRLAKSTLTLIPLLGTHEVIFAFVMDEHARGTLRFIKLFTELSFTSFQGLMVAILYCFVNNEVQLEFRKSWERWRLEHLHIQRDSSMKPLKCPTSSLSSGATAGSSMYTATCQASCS
In short: as §1

[4] = molecular target: T4, human glucose-dependent insulinotropic peptide receptor (GIPR) (Homo sapiens, UniProt P48546); test: cAMP assay, human GIPR cells; conditions: cAMP assay
T4 construct: expressed in transfected cells
T4 sequence (P48546 22-466): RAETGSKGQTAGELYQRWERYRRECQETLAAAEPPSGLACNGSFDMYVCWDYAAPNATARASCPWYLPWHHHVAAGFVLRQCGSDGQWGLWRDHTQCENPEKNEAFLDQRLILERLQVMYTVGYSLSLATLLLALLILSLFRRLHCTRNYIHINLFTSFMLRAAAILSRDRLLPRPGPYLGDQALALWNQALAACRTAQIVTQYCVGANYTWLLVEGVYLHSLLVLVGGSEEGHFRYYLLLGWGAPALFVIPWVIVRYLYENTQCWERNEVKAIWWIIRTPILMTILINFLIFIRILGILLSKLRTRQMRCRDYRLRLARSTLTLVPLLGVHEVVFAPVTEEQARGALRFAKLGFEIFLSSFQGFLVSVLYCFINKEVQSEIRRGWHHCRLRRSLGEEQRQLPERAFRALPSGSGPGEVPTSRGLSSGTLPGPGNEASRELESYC
In short: as §1

[5] = first determination (n1), read-out: Primary assay EC50 Gluc-R (n1)
[6] = second determination (n2), read-out: Primary assay EC50 Gluc-R (n2)
[7] = mean of n1 and n2, read-out: INS1e assay EC50 Mean pM GLP-1R
[8] = replicate n1, read-out: INS1e assay EC50 GLP-1R n1
[9] = replicate n2, read-out: INS1e assay EC50 GLP-1R n2
[10] = cAMP assay, first determination (n1), read-out: Primary assay EC50 GLP-1R n1
[11] = first determination (n1), read-out: Primary assay EC50 GIP-R (n1)
[12] = second determination (n2), read-out: Primary assay EC50 GIP-R (n2)
[13] = cAMP assay, second determination (n2), read-out: Primary assay EC50 GLP-1R n2
[14] = mean of n1 and n2, read-out: Mean pM GLP-1R

SMILES	EC50 [1, 5] [nM]	EC50 [1, 6] [nM]	EC50 [2, 7] [pM]	EC50 [2, 8] [pM]	EC50 [2, 9] [pM]	EC50 [3, 10] [pM]	EC50 [4, 11] [nM]	EC50 [4, 12] [nM]	EC50 [3, 13] [pM]	EC50 [3, 14] [pM]
CC[C@H](C)[C@H](NC(=O)[C@](C)(Cc1ccccc1)NC(=O)[C@H](CCC(=O)O)NC(=O)[C@](C)(CCCCN)NC(=O)[C@H](C)NC(=O)[C@H](C)NC(=O)[C@H](CCC(=O)O)NC(=O)CNC(=O)[C@H](CCC(=O)O)NC(=O)[C@H](CC(C)C)NC(=O)[C@](C)(Cc1ccccc1)NC(=O)[C@H](CO)NC(=O)[C@](C)(CO)NC(=O)[C@H](CCCCNC(=O)COCCOCCNC(=O)COCCOCCNC(=O)CC[C@H](NC(=O)CCCCCCCCCCCCCCCCC(=O)O)C(=O)O)NC(=O)[C@H](CC(=O)O)NC(=O)[C@H](CO)NC(=O)[C@@H](NC(=O)[C@](C)(Cc1ccccc1)NC(=O)[C@H](CO)NC(=O)CNC(=O)[C@H](CCC(=O)O)NC(=O)C(C)(C)NC(=O)[C@@H](N)Cc1c[nH]cn1)[C@@H](C)O)C(=O)N[C@@H](C)C(=O)N[C@@](C)(Cc1ccccc1)C(=O)N[C@H](C(=O)N[C@H](C(=O)N[C@@](C)(CCCCN)C(=O)NCC(=O)NCC(N)=O)C(C)C)C(C)C [compound 119] (H-H[Aib]EGS[αMeF]TSDK([AEEA-AEEA-γGlu-C18 diacid])[αMeS]S[αMeF]LEGEAA[αMeK]E[αMeF]IA[αMeF]VV[αMeK]GG-NH2; N-terminus assumed)	≥ 25	≥ 25.2	2080	2710	1450	18	≥ 25	≥ 25.2	15.7	17
CCCCCCCCCCCC(=O)NCCCCCC(=O)NCCCCCC(=O)NCCCC[C@H](NC(=O)[C@H](C)NC(=O)[C@H](C)NC(=O)[C@H](CCC(=O)O)NC(=O)CNC(=O)[C@H](CCC(=O)O)NC(=O)[C@H](CC(C)C)NC(=O)[C@](C)(Cc1ccccc1)NC(=O)[C@H](CO)NC(=O)[C@](C)(CO)NC(=O)[C@@H](NC(=O)[C@H](CC(=O)O)NC(=O)[C@H](CO)NC(=O)[C@@H](NC(=O)[C@](C)(Cc1ccccc1)NC(=O)[C@H](CO)NC(=O)CNC(=O)[C@H](CCC(=O)O)NC(=O)C(C)(C)NC(=O)[C@@H](N)Cc1c[nH]cn1)[C@@H](C)O)C(C)C)C(=O)N[C@@H](CCC(=O)O)C(=O)N[C@@](C)(Cc1ccccc1)C(=O)N[C@H](C(=O)N[C@@H](C)C(=O)N[C@@](C)(Cc1ccccc1)C(=O)N[C@H](C(=O)N[C@H](C(=O)N[C@@](C)(CCCCN)C(=O)NCC(=O)NCC(N)=O)C(C)C)C(C)C)[C@@H](C)CC [compound 132]	≥ 28	≥ 28	122	129	115	11	≥ 28	≥ 28	7.1	9
CCCCCCCCCCCC(=O)NCCOCCOCC(=O)NCCCC[C@H](NC(=O)[C@H](C)NC(=O)[C@H](C)NC(=O)[C@H](CCC(=O)O)NC(=O)CNC(=O)[C@H](CCC(=O)O)NC(=O)[C@H](CC(C)C)NC(=O)[C@](C)(Cc1ccccc1)NC(=O)[C@H](CO)NC(=O)[C@](C)(CO)NC(=O)[C@@H](NC(=O)[C@H](CC(=O)O)NC(=O)[C@H](CO)NC(=O)[C@@H](NC(=O)[C@](C)(Cc1ccccc1)NC(=O)[C@H](CO)NC(=O)CNC(=O)[C@H](CCC(=O)O)NC(=O)C(C)(C)NC(=O)[C@@H](N)Cc1c[nH]cn1)[C@@H](C)O)C(C)C)C(=O)N[C@@H](CCC(=O)O)C(=O)N[C@@](C)(Cc1ccccc1)C(=O)N[C@H](C(=O)N[C@@H](C)C(=O)N[C@@](C)(Cc1ccccc1)C(=O)N[C@H](C(=O)N[C@H](C(=O)N[C@@](C)(CCCCN)C(=O)NCC(=O)NCC(N)=O)C(C)C)C(C)C)[C@@H](C)CC [compound 134]	≥ 28	≥ 28	123	168	77.6	7	≥ 28	≥ 28	4.9	6
CCCCCCCCCCCC(=O)NCCOCCOCC(=O)NCCOCCOCC(=O)NCCCC[C@H](NC(=O)[C@H](C)NC(=O)[C@H](C)NC(=O)[C@H](CCC(=O)O)NC(=O)CNC(=O)[C@H](CCC(=O)O)NC(=O)[C@H](CC(C)C)NC(=O)[C@](C)(Cc1ccccc1)NC(=O)[C@H](CO)NC(=O)[C@](C)(CO)NC(=O)[C@@H](NC(=O)[C@H](CC(=O)O)NC(=O)[C@H](CO)NC(=O)[C@@H](NC(=O)[C@](C)(Cc1ccccc1)NC(=O)[C@H](CO)NC(=O)CNC(=O)[C@H](CCC(=O)O)NC(=O)C(C)(C)NC(=O)[C@@H](N)Cc1c[nH]cn1)[C@@H](C)O)C(C)C)C(=O)N[C@@H](CCC(=O)O)C(=O)N[C@@](C)(Cc1ccccc1)C(=O)N[C@H](C(=O)N[C@@H](C)C(=O)N[C@@](C)(Cc1ccccc1)C(=O)N[C@H](C(=O)N[C@H](C(=O)N[C@@](C)(CCCCN)C(=O)NCC(=O)NCC(N)=O)C(C)C)C(C)C)[C@@H](C)CC [compound 135]	≥ 27	≥ 27	79	98.6	59.3	5.4	≥ 27	≥ 27	4.5	5

Further lines, results first:

EC50 [1, 5] [nM]	EC50 [1, 6] [nM]	EC50 [2, 7] [pM]	EC50 [2, 8] [pM]	EC50 [2, 9] [pM]	EC50 [3, 10] [pM]	EC50 [4, 11] [nM]	EC50 [4, 12] [nM]	EC50 [3, 13] [pM]	EC50 [3, 14] [pM]	SMILES
≥ 25	≥ 25	806	501	1110	18	≥ 25	≥ 25			CC[C@H](C)[C@H](NC(=O)[C@](C)(Cc1ccccc1)NC(=O)[C@H](CCC(=O)O)NC(=O)[C@](C)(CCCCN)NC(=O)[C@H](C)NC(=O)[C@H](CCCCNC(=O)COCCOCCNC(=O)COCCOCCNC(=O)CC[C@H](NC(=O)CCCCCCCCCCCCCCCCC(=O)O)C(=O)O)NC(=O)[C@H](CCC(=O)O)NC(=O)CNC(=O)[C@H](CCC(=O)O)NC(=O)[C@H](CC(C)C)NC(=O)[C@](C)(Cc1ccccc1)NC(=O)[C@H](CO)NC(=O)[C@](C)(CO)NC(=O)[C@@H](NC(=O)[C@H](CC(=O)O)NC(=O)[C@H](CO)NC(=O)[C@@H](NC(=O)[C@](C)(Cc1ccccc1)NC(=O)[C@H](CO)NC(=O)CNC(=O)[C@H](CCC(=O)O)NC(=O)C(C)(C)NC(=O)[C@@H](N)Cc1c[nH]cn1)[C@@H](C)O)C(C)C)C(=O)N[C@@H](C)C(=O)N[C@@](C)(Cc1ccccc1)C(=O)N[C@H](C(=O)N[C@H](C(=O)N[C@@](C)(CCCCN)C(=O)NCC(=O)NCC(N)=O)C(C)C)C(C)C [compound 111] (H-H[Aib]EGS[αMeF]TSDV[αMeS]S[αMeF]LEGEK([AEEA-AEEA-γGlu-C18 diacid])A[αMeK]E[αMeF]IA[αMeF]VV[αMeK]GG-NH2)
≥ 25	≥ 25.4	385	294	476		≥ 25	≥ 25.4	5.07		CC[C@H](C)[C@H](NC(=O)[C@](C)(Cc1ccccc1)NC(=O)[C@H](CCC(=O)O)NC(=O)[C@](C)(CCCCN)NC(=O)[C@H](C)NC(=O)[C@H](C)NC(=O)[C@H](CCCCNC(=O)COCCOCCNC(=O)COCCOCCNC(=O)CC[C@H](NC(=O)CCCCCCCCCCCCCCCCC(=O)O)C(=O)O)NC(=O)CNC(=O)[C@H](CCC(=O)O)NC(=O)[C@H](CC(C)C)NC(=O)[C@](C)(Cc1ccccc1)NC(=O)[C@H](CO)NC(=O)[C@](C)(CO)NC(=O)[C@@H](NC(=O)[C@H](CC(=O)O)NC(=O)[C@H](CO)NC(=O)[C@@H](NC(=O)[C@](C)(Cc1ccccc1)NC(=O)[C@H](CO)NC(=O)CNC(=O)[C@H](CCC(=O)O)NC(=O)C(C)(C)NC(=O)[C@@H](N)Cc1c[nH]cn1)[C@@H](C)O)C(C)C)C(=O)N[C@@H](C)C(=O)N[C@@](C)(Cc1ccccc1)C(=O)N[C@H](C(=O)N[C@H](C(=O)N[C@@](C)(CCCCN)C(=O)NCC(=O)NCC(N)=O)C(C)C)C(C)C [compound 112] (H-H[Aib]EGS[αMeF]TSDV[αMeS]S[αMeF]LEGK([AEEA-AEEA-γGlu-C18 diacid])AA[αMeK]E[αMeF]IA[αMeF]VV[αMeK]GG-NH2; N-terminus assumed)

Reference: patent publication US10414811B2, “Protease-resistant lipidated GLP-1 analogs” (MEDIMMUNE LIMITED, priority 2015, dated 2019)
